# Measured values reported in ChEMBL document CHEMBL4392867, “Asperunguisins A-F, Cytotoxic Asperane Sesterterpenoids from the Endolichenic Fungus Aspergillus unguis” (J Nat Prod, 2019).
# Structures can show the parent of a compound that is named as a salt. Activity calls are given as the source filed them. The calls are words filed in the database; no cut-off is given here.
# What was measured:
# [1] = system: HepG2; assay: Cytotoxicity in human HepG2 cells assessed as reduction in cell viability incubated for 48 hrs by MTT assay; assay type: functional, cell-based; conditions: HepG2, 48 h
# [2] = system: SMMC-7721; assay: Cytotoxicity in human SMMC7721 cells assessed as reduction in cell viability incubated for 48 hrs by MTT assay; assay type: functional, cell-based; conditions: SMMC-7721, 48 h
# [3] = system: HT-29; assay: Cytotoxicity in human HT-29 cells assessed as reduction in cell viability incubated for 48 hrs by MTT assay; assay type: functional, cell-based; conditions: HT-29, 48 h
# [4] = system: U-87 MG; assay: Cytotoxicity in human U87 cells assessed as reduction in cell viability incubated for 48 hrs by MTT assay; assay type: functional, cell-based, U-87MG ATCC
# [5] = system: A549; assay: Cytotoxicity in human A549 cells assessed as reduction in cell viability incubated for 48 hrs by MTT assay; assay type: functional, cell-based; conditions: A549, 48 h
# [6] = system: U-251; assay: Cytotoxicity in human U251 cells assessed as reduction in cell viability incubated for 48 hrs by MTT assay; assay type: functional, cell-based; conditions: U-251, 48 h
# [7] = system: A549; assay: Cytotoxicity in human A549 cells assessed as reduction in cell viability at 40 uM incubated for 48 hrs by MTT assay; assay type: functional, cell-based
# [8] = system: U-251; assay: Cytotoxicity in human U251 cells assessed as reduction in cell viability at 40 uM incubated for 48 hrs by MTT assay; assay type: functional, cell-based
# [9] = system: HepG2; assay: Cytotoxicity in human HepG2 cells assessed as reduction in cell viability at 40 uM incubated for 48 hrs by MTT assay; assay type: functional, cell-based
# [10] = system: HT-29; assay: Cytotoxicity in human HT-29 cells assessed as reduction in cell viability at 40 uM incubated for 48 hrs by MTT assay; assay type: functional, cell-based
# [11] = system: U-87 MG; assay: Cytotoxicity in human U87 cells assessed as reduction in cell viability at 40 uM incubated for 48 hrs by MTT assay; assay type: functional, cell-based; conditions: U-87MG ATCC
# [12] = system: SMMC-7721; assay: Cytotoxicity in human SMMC7721 cells assessed as reduction in cell viability at 40 uM incubated for 48 hrs by MTT assay; assay type: functional, cell-based
# [13] = system: A549; assay: Induction of cell cycle arrest in human A549 cells assessed as accumulation at G1 phase incubated for 24 hrs by propidium iodide staining based flow cytometry; assay type: functional
# [14] = system: A549; assay: Induction of cell cycle arrest in human A549 cells assessed as accumulation at S phase at 20 uM incubated for 24 hrs by propidium iodide staining based flow cytometry (reference value: 19.47%); assay type: functional
# [15] = system: A549; assay: Induction of apoptosis in human A549 cells assessed as early apoptotic cells level at 10 uM incubated for 24 hrs by Annexin V-FITC and propidium iodide staining based flow cytometry (reference value: 1.81%); assay type: functional
# [16] = system: A549; assay: Induction of apoptosis in human A549 cells assessed as late apoptotic cells level at 15 uM incubated for 24 hrs by Annexin V-FITC and propidium iodide staining based flow cytometry (reference value: 4.14%); assay type: functional
# [17] = system: A549; assay: Induction of apoptosis in human A549 cells assessed as necrotic cells level at 15 uM incubated for 24 hrs by Annexin V-FITC and propidium iodide staining based flow cytometry (reference value: 3.23%); assay type: functional
# [18] = system: A549; assay: Induction of apoptosis in human A549 cells assessed as necrotic cells level at 10 uM incubated for 24 hrs by Annexin V-FITC and propidium iodide staining based flow cytometry (reference value: 3.23%); assay type: functional
# [19] = system: A549; assay: Cytotoxicity in human A549 cells assessed as reduction in cell viability incubated for 48 hrs in presence of pan-caspase inhibitor Z-VAD-fmk by MTT assay; assay type: functional, cell-based
# [20] = system: A549; assay: Induction of cell cycle arrest in human A549 cells assessed as accumulation at G2 phase at 20 uM incubated for 24 hrs by propidium iodide staining based flow cytometry (reference value: 13.54%); assay type: functional
# [21] = system: A549; assay: Induction of apoptosis in human A549 cells assessed as late apoptotic cells level at 10 uM incubated for 24 hrs by Annexin V-FITC and propidium iodide staining based flow cytometry (reference value: 4.14%); assay type: functional
# [22] = system: A549; assay: Induction of cell cycle arrest in human A549 cells assessed as accumulation at G1 phase at 15 uM incubated for 24 hrs by propidium iodide staining based flow cytometry (reference value: 66.99%); assay type: functional
# [23] = system: A549; assay: Induction of DNA damage in human A549 cells assessed as increase in expression of gamma-H2AX protein expression by Western blot analysis; assay type: functional, cell-based
# [24] = system: A549; assay: Induction of cell cycle arrest in human A549 cells assessed as accumulation at S phase at 10 uM incubated for 24 hrs by propidium iodide staining based flow cytometry (reference value: 19.47%); assay type: functional
# [25] = system: A549; assay: Induction of cell cycle arrest in human A549 cells assessed as accumulation at G1 phase at 20 uM incubated for 24 hrs by propidium iodide staining based flow cytometry (reference value: 66.99%); assay type: functional
# [26] = system: A549; assay: Induction of apoptosis in human A549 cells assessed as early apoptotic cells level at 15 uM incubated for 24 hrs by Annexin V-FITC and propidium iodide staining based flow cytometry (reference value: 1.81%); assay type: functional
# [27] = system: A549; assay: Induction of apoptosis in human A549 cells assessed as early apoptotic cells level at 20 uM incubated for 24 hrs by Annexin V-FITC and propidium iodide staining based flow cytometry (reference value: 1.81%); assay type: functional
# [28] = system: A549; assay: Induction of cell cycle arrest in human A549 cells assessed as accumulation at G1 phase at 10 uM incubated for 24 hrs by propidium iodide staining based flow cytometry (reference value: 66.99%); assay type: functional
# [29] = system: A549; assay: Induction of cell cycle arrest in human A549 cells assessed as accumulation at G2 phase at 10 uM incubated for 24 hrs by propidium iodide staining based flow cytometry (reference value: 13.54%); assay type: functional
# [30] = system: A549; assay: Induction of cell cycle arrest in human A549 cells assessed as accumulation at G2 phase at 15 uM incubated for 24 hrs by propidium iodide staining based flow cytometry (reference value: 13.54%); assay type: functional
# [31] = system: A549; assay: Induction of apoptosis in human A549 cells assessed as necrotic cells level at 20 uM incubated for 24 hrs by Annexin V-FITC and propidium iodide staining based flow cytometry (reference value: 3.23%); assay type: functional
# [32] = system: A549; assay: Induction of cell cycle arrest in human A549 cells assessed as accumulation at S phase at 15 uM incubated for 24 hrs by propidium iodide staining based flow cytometry (reference value: 19.47%); assay type: functional
# [33] = system: A549; assay: Induction of apoptosis in human A549 cells assessed as late apoptotic cells level at 20 uM incubated for 24 hrs by Annexin V-FITC and propidium iodide staining based flow cytometry (reference value: 4.14%); assay type: functional
compound,measurement,setting,value
C=C1CC[C@@H]2[C@@]3(C)CC=C4[C@H](C(C)C)CC[C@@]4(C)[C@@H]3C[C@H](O)[C@@]2(C)[C@@H]2O[C@@H](c3ccc(O)cc3)O[C@@H]12,IC50,[1],> 40 µM
same,IC50,[2],25.4 µM
same,IC50,[3],> 40 µM
same,IC50,[4],> 40 µM
same,IC50,[5],> 40 µM
same,IC50,[6],> 40 µM
CC(C)[C@@H]1CC[C@]2(C)C1=CC[C@]1(C)[C@H]3CC[C@]4(C)O[C@@H]4[C@@H](O)[C@]3(C)[C@@H](O)C[C@H]12,Activity,[7],inactive
same,Activity,[8],inactive
same,Activity,[9],inactive
same,Activity,[10],inactive
same,Activity,[11],inactive
same,Activity,[12],inactive
COc1cccc2c1C(=O)c1c(O)c3c(c(O)c1C2=O)C[C@@](O)(C(=O)CO)C[C@@H]3O[C@H]1C[C@H](N)[C@H](O)[C@H](C)O1 [DOXORUBICIN HYDROCHLORIDE],IC50,[4],1.1 µM
same,IC50,[6],2.9 µM
CC1=C[C@@H](O)[C@@]2(C)[C@H](CC1)[C@@]1(C)CC=C3[C@H](C(C)C)CC[C@@]3(C)[C@@H]1C[C@@H]2O,IC50,[1],> 40 µM
same,IC50,[2],> 40 µM
same,IC50,[3],24.2 µM
same,IC50,[4],> 40 µM
same,IC50,[5],> 40 µM
same,IC50,[6],> 40 µM
CC(C)[C@@H]1CC[C@]2(C)C1=CC[C@]1(C)[C@H]3CC[C@@]4(C)O[C@H]([C@H]4O)[C@]3(C)[C@@H](O)C[C@H]12,Activity,[13],Dose-dependent effect
same,IC50,[1],20.1 µM
same,IC50,[2],15.2 µM
same,Activity,[14],10.38%
same,Activity,[15],2.17%
same,Activity,[16],6.05%
same,Activity,[17],3.79%
same,Activity,[18],3.23%
same,Activity,[19],inactive
same,Activity,[20],3.76%
same,IC50,[3],14.6 µM
same,Activity,[21],3.93%
same,Activity,[22],83.33%
same,IC50,[4],16.4 µM
same,Activity,[23],Dose-dependent effect
same,Activity,[24],16.1%
same,Activity,[25],85.86%
same,Activity,[26],2.43%
same,Activity,[27],16.83%
same,IC50,[5],6.2 µM
same,Activity,[28],76.4%
same,Activity,[29],7.51%
same,Activity,[30],5.06%
same,Activity,[31],3.3%
same,IC50,[6],12.6 µM
same,Activity,[32],11.62%
same,Activity,[33],20.57%
CC(C)[C@@H]1CC[C@]2(C)C1=CC[C@]1(C)[C@H]3CC[C@](C)(O)[C@H](O)[C@@H](O)[C@]3(C)[C@@H](O)C[C@H]12,Activity,[7],inactive
same,Activity,[8],inactive
same,Activity,[9],inactive
same,Activity,[10],inactive
same,Activity,[11],inactive
same,Activity,[12],inactive
CC(C)[C@@H]1CC[C@]2(C)C1=CC[C@]1(C)[C@H]3CC[C@]4(C)O[C@@H]4C(=O)[C@]3(C)[C@@H](O)C[C@H]12,Activity,[7],inactive
same,Activity,[8],inactive
same,Activity,[9],inactive
same,Activity,[10],inactive
same,Activity,[11],inactive
same,Activity,[12],inactive
C=C1CC[C@@H]2[C@@]3(C)CC=C4[C@H](C(C)C)CC[C@@]4(C)[C@@H]3C[C@H](O)[C@@]2(C)[C@H](O)[C@H]1O,IC50,[1],8.2 µM
same,IC50,[2],> 40 µM
same,IC50,[3],> 40 µM
same,IC50,[4],> 40 µM
same,IC50,[5],16.3 µM
same,IC50,[6],> 40 µM
